The subject of assay [1] is MV-4-11 cells. Put plainly: AML cell viability, CellTiter-Glo, MV-4-11 cells. The assay is classed as cell-based. Conditions: Homo sapiens. Here is the method: MV4-11 cells were obtained from ATCC and grown in IMDM supplemented with 10% FBS. The cells were maintained at 37° C. under 5% CO2. […] The luminescence was normalized to that of DMSO-treated samples. IC50 values were obtained using three-parameter non-linear regressions using Prism (GraphPad). […] Cell viability was measured using the CellTiter-Glo reagent after 44 hours of treatment. […] MV4-11 cells were obtained from ATCC and grown in IMDM supplemented with 10% FBS. The cells were maintained at 37° C. under 5% CO2. […] Cell viability was measured using the CellTiter-Glo reagent after 44 hours of treatment.

Assay [2] deals with T1, GSPT1 (Homo sapiens, UniProt P15170+Q96SW2). The assay can be described thus: cell-based. Conditions: read-out: GSPT1 degradation classification.
In assay [3] the test system is NCI-H1155 cells. The assay can be described thus: NSCLC cell viability, CellTiter-Glo, NCI-H1155 cells. The assay is classed as cell-based. The following applies: Homo sapiens; NCI-H1155 cells, CellTiter-Glo, 72 hours of treatment; read-out: Cell viability classification (NCI-H1155).
The target of assay [4] is T1, GSPT1. The assay is classed as cell-based. How it is done:
GSPT1_HiBIT_HEK293 cells were culture in DMEM medium with 10% FBS under standard tissue culture conditions. […] GSPT1 level was determined in along with the Nano-Glo HiBiT Lytic Detection system [Promega N3050] with final concentration of 1×. The luminescence was normalized to that of DMSO-treated samples. DC50 values were obtained using three-parameter non-linear regressions using Prism (GraphPad).

The mark [5] stands for this setting: MV4-11, MV-4-11 cells, CellTiter-Glo, 44 hours of treatment, TABLE 1, read-out: Cell viability classification.
The mark [6] stands for this setting: MV4-11, 44 h, read-out: Cell viability classification.
Where [7] appears, read: MV4-11, MV-4-11 cells, 1 μM, 6 hours, Western Blot, % reduction of GSPT1 compared to DMSO, normalized to GAPDH.
The mark [8] stands for this setting: MV4-11, MV-4-11 cells, CellTiter-Glo, 44 hours of treatment, TABLE 5, read-out: Cell viability classification (MV-4-11).
[9] abbreviates: read-out: GSPT1 degradation classification; DC50, GSPT1_HiBIT_HEK293 cells, 16 hours, Nano-Glo HiBiT Lytic Detection.
The mark [10] stands for this setting: DC50, GSPT1_HiBIT_HEK293 cells, 16 hours, Nano-Glo HiBiT Lytic Detection; read-out: GSPT1 degradation classification.

Where two headings read alike, the source gives them in different places.

This note sets out measurements from patent publication US20260285872A1, “COMPOUNDS AND METHODS FOR DEGRADING GSPT1” (priority 2023, published 2026).

T1 sequence (P15170 whole entry): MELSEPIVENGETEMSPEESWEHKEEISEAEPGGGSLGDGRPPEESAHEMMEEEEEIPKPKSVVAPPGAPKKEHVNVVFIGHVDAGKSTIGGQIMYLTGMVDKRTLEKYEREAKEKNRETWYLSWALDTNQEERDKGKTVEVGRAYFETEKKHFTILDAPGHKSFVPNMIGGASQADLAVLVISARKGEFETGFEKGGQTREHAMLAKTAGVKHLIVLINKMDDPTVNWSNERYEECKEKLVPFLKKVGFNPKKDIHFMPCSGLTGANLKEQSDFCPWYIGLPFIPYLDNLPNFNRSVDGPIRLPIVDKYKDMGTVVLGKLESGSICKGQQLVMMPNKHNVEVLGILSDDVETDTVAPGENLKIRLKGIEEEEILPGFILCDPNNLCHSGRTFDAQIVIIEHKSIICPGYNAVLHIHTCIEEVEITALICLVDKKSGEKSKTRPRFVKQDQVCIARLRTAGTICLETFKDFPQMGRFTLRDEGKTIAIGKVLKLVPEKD
T1 sequence (Q96SW2 whole entry): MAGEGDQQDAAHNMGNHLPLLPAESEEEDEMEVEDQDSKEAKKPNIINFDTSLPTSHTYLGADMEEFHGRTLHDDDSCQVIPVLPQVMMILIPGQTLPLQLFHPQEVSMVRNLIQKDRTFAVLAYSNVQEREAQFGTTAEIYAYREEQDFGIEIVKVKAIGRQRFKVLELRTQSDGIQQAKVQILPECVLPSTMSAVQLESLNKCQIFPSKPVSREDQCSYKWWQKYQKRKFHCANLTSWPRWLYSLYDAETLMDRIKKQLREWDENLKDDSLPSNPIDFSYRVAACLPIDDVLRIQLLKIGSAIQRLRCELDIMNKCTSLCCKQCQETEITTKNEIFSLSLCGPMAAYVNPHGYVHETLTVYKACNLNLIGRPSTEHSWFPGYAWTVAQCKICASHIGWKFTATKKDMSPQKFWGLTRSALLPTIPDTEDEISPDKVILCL
T1 sequence (Q16531 whole entry partner): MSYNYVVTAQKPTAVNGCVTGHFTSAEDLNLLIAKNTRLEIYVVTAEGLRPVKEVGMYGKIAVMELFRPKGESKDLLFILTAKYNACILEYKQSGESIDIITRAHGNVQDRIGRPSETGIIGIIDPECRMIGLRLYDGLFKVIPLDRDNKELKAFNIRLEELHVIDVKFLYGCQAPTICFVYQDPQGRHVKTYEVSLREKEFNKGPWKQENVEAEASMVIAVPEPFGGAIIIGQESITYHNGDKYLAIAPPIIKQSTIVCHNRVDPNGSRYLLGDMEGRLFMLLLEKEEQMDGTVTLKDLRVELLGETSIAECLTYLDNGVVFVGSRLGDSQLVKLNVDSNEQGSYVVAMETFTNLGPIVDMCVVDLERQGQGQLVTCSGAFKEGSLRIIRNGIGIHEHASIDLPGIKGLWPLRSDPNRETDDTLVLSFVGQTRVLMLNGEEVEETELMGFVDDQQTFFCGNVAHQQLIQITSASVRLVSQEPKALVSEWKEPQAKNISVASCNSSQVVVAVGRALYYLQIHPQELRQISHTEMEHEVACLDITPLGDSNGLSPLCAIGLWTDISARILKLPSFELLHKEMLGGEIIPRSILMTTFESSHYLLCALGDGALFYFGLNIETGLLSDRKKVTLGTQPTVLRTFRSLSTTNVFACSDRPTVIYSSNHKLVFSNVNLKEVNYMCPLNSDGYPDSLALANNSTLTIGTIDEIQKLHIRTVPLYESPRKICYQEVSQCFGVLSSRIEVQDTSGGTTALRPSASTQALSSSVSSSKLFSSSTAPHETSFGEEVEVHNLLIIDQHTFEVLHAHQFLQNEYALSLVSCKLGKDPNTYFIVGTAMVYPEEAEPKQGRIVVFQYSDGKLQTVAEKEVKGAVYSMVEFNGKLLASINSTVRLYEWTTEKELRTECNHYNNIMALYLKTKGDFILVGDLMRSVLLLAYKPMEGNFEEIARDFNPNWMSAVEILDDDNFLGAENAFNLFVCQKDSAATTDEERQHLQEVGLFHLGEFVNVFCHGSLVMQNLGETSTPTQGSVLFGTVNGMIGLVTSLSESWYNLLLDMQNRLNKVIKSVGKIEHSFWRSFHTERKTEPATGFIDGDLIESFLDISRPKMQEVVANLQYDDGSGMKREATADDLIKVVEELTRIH

As to `O=C1CC[C@H](N2Cc3cc(C(=O)Nc4cncc5ccccc45)ccc3C2=O)C(=O)N1` (stereo in doubt) [Example 2, 2-(2,6-dioxopiperidin-3-yl)-N-(isoquinolin-4-yl)-1-oxoisoindoline-5-carboxamide], the IC50 in assay [1] (setting [5]) fell in the range of 100 to 1000 nM.
`O=C1CCC(N2Cc3cc(C(=O)N[C@H]4CCc5ccccc54)ccc3C2=O)C(=O)N1` (stereo partly drawn) [Example 1, N—((S)-2,3-dihydro-1H-inden-1-yl)-2-(2,6-dioxopiperidin-3-yl)-1-oxoisoindoline-5-carboxamide]: in assay [1] (setting [6]), the IC50 was less than 100 nM. In assay [2] (MV4-11, 6 h), the inhibition at 1 µM is less than 50%.
Turning to `O=C1CCC(N2Cc3cc(C(=O)Nc4csc5ccccc45)ccc3C2=O)C(=O)N1` (centres unmarked) [Example 8, N-(benzo[b]thiophen-3-yl)-2-(2,6-dioxopiperidin-3-yl)-1-oxoisoindoline-5-carboxamide], in assay [1] (setting [5]), the IC50 was less than 100 nM. Further, in assay [2] (MV4-11, 6 h), the inhibition at 1 µM was more than 75%.
For `O=C1CCC(N2Cc3cc(C(=O)N4CCc5ccccc54)ccc3C2=O)C(=O)N1` (centres unmarked) [Example 11, 3-(5-(indoline-1-carbonyl)-1-oxoisoindolin-2-yl)piperidine-2,6-dione], the IC50 in assay [1] (setting [6]) is less than 100 nM. In assay [2] (MV4-11, 6 h), the inhibition at 1 µM was more than 75%.
As to `O=C1CCC(N2Cc3cc(C(=O)N4Cc5ccccc5C4)ccc3C2=O)C(=O)N1` (centres unmarked) [Example 12, 3-(5-(isoindoline-2-carbonyl)-1-oxoisoindolin-2-yl)piperidine-2,6-dione], the IC50 in assay [1] (setting [5]) is less than 100 nM.
On to `O=C1CCC(N2Cc3cc(C(=O)N4Cc5cccc(C(F)(F)F)c5C4)ccc3C2=O)C(=O)N1` (centres unmarked) [Example 21, 3-(1-oxo-5-(4-(trifluoromethyl)isoindoline-2-carbonyl)isoindolin-2-yl)piperidine-2,6-dione], for which, in assay [1] (setting [5]), the IC50 is less than 100 nM. In assay [2] (setting [7]), the inhibition at 1 µM was more than 75%.
Take `O=C1CCC(N2Cc3cc(C(=O)N4Cc5ccc(C(F)(F)F)cc5C4)ccc3C2=O)C(=O)N1` (centres unmarked) [Example 22, 3-(1-oxo-5-(5-(trifluoromethyl)isoindoline-2-carbonyl)isoindolin-2-yl)piperidine-2,6-dione]: in assay [1] (setting [5]), the IC50 was less than 100 nM. Besides, the inhibition at 1 µM in assay [2] (setting [7]) is more than 75%.
As for `COc1cc(F)c2c(c1)CCN2C(=O)c1ccc2c(c1)CN(C1CCC(=O)NC1=O)C2=O` (centres unmarked) [Example 64, 3-(5-(7-fluoro-5-methoxyindoline-1-carbonyl)-1-oxoisoindolin-2-yl)piperidine-2,6-dione], in assay [1] (MV4-11, TABLE 2, MV-4-11 cells assumed, CellTiter-Glo, 44 hours, read-out: Cell viability classification), the IC50 is less than 100 nM.
On to `O=C1CCN(c2ccc3ccc(C(=O)N4CCc5cccc(F)c54)cc3c2)C(=O)N1` [Example 118, 1-(7-(7-fluoroindoline-1-carbonyl)naphthalen-2-yl)dihydropyrimidine-2,4(1H,3H)-dione], for which the IC50 in assay [1] (setting [8]) was more than 1000 nM.
Same read-out and setting: to `O=C1CCN(c2ccc3ccc(C(=O)N4CCc5cc(F)ccc54)cc3c2)C(=O)N1` [Example 119, 1-(7-(5-fluoroindoline-1-carbonyl)naphthalen-2-yl)dihydropyrimidine-2,4(1H,3H)-dione] belongs more than 1000 nM; to `O=C1CCN(c2ccc3ccc(C(=O)N4CCc5ccccc54)cc3c2)C(=O)N1` [Example 120, 1-(7-(indoline-1-carbonyl)naphthalen-2-yl)dihydropyrimidine-2,4(1H,3H)-dione], more than 1000 nM; to `O=C1CCN(c2ccc3ccc(C(=O)N4Cc5ccccc5C4)cc3c2)C(=O)N1` [Example 125, 1-(7-(isoindoline-2-carbonyl)naphthalen-2-yl)dihydropyrimidine-2,4(1H,3H)-dione], 100 to 1000 nM.
For the molecule `O=C1CCN(c2ccc3ccc(C(=O)N4CCc5c(F)cccc54)cc3c2)C(=O)N1` [Example 126, 1-(7-(4-fluoroindoline-1-carbonyl)naphthalen-2-yl)dihydropyrimidine-2,4(1H,3H)-dione], in assay [1] (setting [8]), the IC50 is more than 1000 nM.
Same read-out and setting: to `O=C1CCN(c2ccc3ccc(C(=O)N4Cc5cccc(F)c5C4)cc3c2)C(=O)N1` [Example 127, 1-(7-(4-fluoroisoindoline-2-carbonyl)naphthalen-2-yl)dihydropyrimidine-2,4(1H,3H)-dione] belongs 100 to 1000 nM; to `O=C1CCN(c2ccc3ccc(C(=O)N4CCCc5ccccc54)cc3c2)C(=O)N1` [Example 128, 1-(7-(1,2,3,4-tetrahydroquinoline-1-carbonyl)naphthalen-2-yl)dihydropyrimidine-2,4(1H,3H)-dione], more than 1000 nM; to `O=C1CCN(c2ccc3ccc(C(=O)N4CCc5ccccc5C4)cc3c2)C(=O)N1` [Example 129, 1-(7-(1,2,3,4-tetrahydroisoquinoline-2-carbonyl)naphthalen-2-yl)dihydropyrimidine-2,4(1H,3H)-dione], more than 1000 nM.
For the molecule `O=C1CCC(N2Cc3cc(C(=O)N4CC5(C=C(c6ccc(C(F)(F)F)cc6F)C5)C4)ccc3C2=O)C(=O)N1` (centres unmarked) [Example 241, 3-(5-(6-(2-fluoro-4-(trifluoromethyl)phenyl)-2-azaspiro[3.3]hept-5-ene-2-carbonyl)-1-oxoisoindolin-2-yl)piperidine-2,6-dione], the IC50 in assay [3] was in the range of 10 to 100 nM. Moreover, the DC50 in assay [4] (setting [9]) was less than 100 nM.
With `O=C1CCC(N2Cc3cc(C(=O)NC4CC5(C=C(c6ccc(F)cc6F)C5)C4)c(F)cc3C2=O)C(=O)N1` (centres unmarked) [Example 254, N-(6-(2,4-difluorophenyl)spiro[3.3]hept-5-en-2-yl)-2-(2,6-dioxopiperidin-3-yl)-6-fluoro-1-oxoisoindoline-5-carboxamide], the IC50 in assay [3] is 10 to 100 nM. Moreover, the DC50 in assay [4] (setting [10]) fell in the range of 100 to 300 nM.
Consider `O=C1CCC(N2Cc3cc(C(=O)NC4CC5(C4)CC(c4ccc(F)cc4F)C5)c(F)cc3C2=O)C(=O)N1` (centres unmarked) [Example 255, N-(6-(2,4-difluorophenyl)spiro[3.3]heptan-2-yl)-2-(2,6-dioxopiperidin-3-yl)-6-fluoro-1-oxoisoindoline-5-carboxamide], for which the IC50 in assay [3] lay within 10 to 100 nM. For the same molecule, the DC50 in assay [4] (setting [10]) is less than 100 nM.
As for `O=C1CCC(N2Cc3cc(C(=O)NC4CC5(C4)CC(c4ccc(C(F)(F)F)cc4F)C5)ccc3C2=O)C(=O)N1` (centres unmarked) [Example 258, 2-(2,6-dioxopiperidin-3-yl)-N-(6-(2-fluoro-4-(trifluoromethyl)phenyl)spiro[3.3]heptan-2-yl)-1-oxoisoindoline-5-carboxamide], the IC50 in assay [3] was 100 to 1000 nM. In addition, the DC50 in assay [4] (setting [10]) lay within 100 to 300 nM.
Consider `O=C1CCC(N2Cc3cc(C(=O)N4Cc5c(Cl)ccc(C(F)(F)F)c5C4)ccc3C2=O)C(=O)N1` (centres unmarked) [Example 261, 3-(5-(4-chloro-7-(trifluoromethyl)isoindoline-2-carbonyl)-1-oxoisoindolin-2-yl)piperidine-2,6-dione], for which the IC50 in assay [3] is 10 to 100 nM. Besides, the DC50 in assay [4] (setting [9]) is 100 to 300 nM.
For `O=C1CCC(N2Cc3cc(C(=O)N4Cc5ccc(OC(F)(F)F)c(F)c5C4)ccc3C2=O)C(=O)N1` (centres unmarked) [Example 263, 3-(5-(4-fluoro-5-(trifluoromethoxy)isoindoline-2-carbonyl)-1-oxoisoindolin-2-yl)piperidine-2,6-dione], the IC50 in assay [3] is 10 to 100 nM. Moreover, in assay [4] (setting [9]), the DC50 was 100 to 300 nM.
The matching figures for `O=C1CCC(N2Cc3cc(C(=O)N4Cc5cc(F)cc(C(F)(F)F)c5C4)ccc3C2=O)C(=O)N1` (centres unmarked) [Example 264, 3-(5-(6-fluoro-4-(trifluoromethyl)isoindoline-2-carbonyl)-1-oxoisoindolin-2-yl)piperidine-2,6-dione]: 10 to 100 nM and less than 100 nM.
